According to patent US20050009924A1 (priority 2003, published 2005):

Assays:
[1] = test system: transcriptional activity of hTERT; assay: SEAP reporter assay of hTERT expression, PhTERT-SEAP (H1299); assay type: cell-based, human
Outline: (§1)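 Cells seeded, grown 24 h at 37° C, refed, then exposed to varying drug amounts for another 24 h. Collected media heated 65° C for 10 min to kill heat-labile phosphatases, mixed with equal SEAP buffer (2 M diethanolamine, 1 mM MgCl2, 20 mM […]) plus 12 mM final p-nitrophenyl phosphate; rate of A405 increase measured.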

[2] = test system: rat glioma C6 cells; assay: Cytotoxicity assay (XTT colorimetric), C6 cells; assay type: cell-based; details: Rattus norvegicus, C6; 48 h of drug exposure
[3] = test system: human hepatoma G2 cells; assay: Cytotoxicity assay (XTT colorimetric), Hep G2; assay type: cell-based; details: Homo sapiens, HepG2; 48 h of drug exposure
[4] = test system: transcriptional activity of hTERT; assay: SEAP reporter assay of hTERT expression, PhTERT-SEAP (hTERT-BJ1); assay type: cell-based, human
Outline: as §1

[5] = MTT relative viability, PhTERT-SEAP (H1299) cells; details: human
[6] = MTT relative viability, PhTERT-SEAP (hTERT-BJ1) cells; details: human
[7] = test system: hepatitis B virus transfected hepatoma cell lines, HepG 2.2.15 cells; assay: Cytotoxicity assay, 2.2.15 cells; assay type: cell-based, human; details: Homo sapiens, HepG2.2.15; 48 h of drug exposure
[8] = hTERT-BJ1 cells, stable PhTERT-SEAP reporter clone
[9] = Homo sapiens, NCI-H1299, hTERT-H1299, read-out: Relative SEAP activity (%)
[10] = Homo sapiens, hTERT-BJ1, read-out: Relative SEAP activity (%)
[11] = hTERT-BJ1 cells stably transfected with PhTERT-SEAP reporter

## O=C1c2ccccc2C(=O)c2c(NC(=O)[C@@H]3C[C@H]3c3ccccc3)ccc(NC(=O)[C@@H]3C[C@H]3c3ccccc3)c21 (relative stereo) [VI27, 1,4-Bis(trans-2-phenyl-1-cyclopropaneamido)-9,10-anthracenedione]
[1]; 1.8 μM, PhTERT-SEAP(hTERT-H1299)
  SEAP/vibility: 0.94
[1]; 18 μM, PhTERT-SEAP(hTERT-H1299)
  SEAP/vibility: 0.93
[1]; 189 μM, PhTERT-SEAP(hTERT-H1299)
  SEAP/vibility: 0.92
[1]; Homo sapiens, NCI-H1299, 1.8 μM, PhTERT-SEAP(hTERT-H1299), read-out: Relative SEAP activity (%)
  activity at 1.8 µM: 95 ± 7.7%
[1]; Homo sapiens, NCI-H1299, 18 μM, PhTERT-SEAP(hTERT-H1299), read-out: Relative SEAP activity (%)
  activity at 18 µM: 93 ± 3.2%
[1]; Homo sapiens, NCI-H1299, 189 μM, PhTERT-SEAP(hTERT-H1299), read-out: Relative SEAP activity (%)
  activity at 189 µM: 87 ± 3.6%
[2]
  IC50: > 20 µM
[3]
  IC50: > 20 µM
[4]; 1.8 μM, PhTERT-SEAP (hTERT-BJ1)
  SEAP/vibility: 0.89
[4]; 18 μM, PhTERT-SEAP (hTERT-BJ1)
  SEAP/vibility: 0.99
[4]; 189 μM, PhTERT-SEAP (hTERT-BJ1)
  SEAP/vibility: 0.98
[4]; Homo sapiens, 1.8 μM, PhTERT-SEAP (hTERT-BJ1), read-out: Relative SEAP activity (%)
  activity at 1.8 µM: 92 ± 16.9%
[4]; Homo sapiens, 18 μM, PhTERT-SEAP (hTERT-BJ1), read-out: Relative SEAP activity (%)
  activity at 18 µM: 97 ± 18.2%
[4]; Homo sapiens, 189 μM, PhTERT-SEAP (hTERT-BJ1), read-out: Relative SEAP activity (%)
  activity at 189 µM: 102 ± 16.6%
[5]
  viability at 48 h, 1.8 µM: 101 ± 2.4%
  viability at 48 h, 18 µM: 100 ± 4.7%
  viability at 48 h, 189 µM: 94 ± 3.5%
[6]; [8]
  viability at 48 h, 1.8 µM: 92 ± 16.9%
  viability at 48 h, 18 µM: 97 ± 18.2%
  viability at 48 h, 189 µM: 104 ± 10.7%
[7]
  IC50: 19.5 µM
other
  melting point: 272 to 274 °C

## CCNc1cccc2c1C(=O)c1cccc(NCC)c1C2=O [IVa, 1,5-Bis(ethylamino)anthraquinone]
[1]; Homo sapiens, NCI-H1299, 3.3 μM, hTERT-H1299, read-out: Relative SEAP activity (%)
  activity at 3.3 µM: 108 ± 6.3%
[1]; Homo sapiens, NCI-H1299, 33 μM, hTERT-H1299, read-out: Relative SEAP activity (%)
  activity at 33 µM: 101 ± 6.8%
[1]; Homo sapiens, NCI-H1299, 339 μM, hTERT-H1299, read-out: Relative SEAP activity (%)
  activity at 339 µM: 95 ± 11%
[2]
  IC50: > 20 µM
[3]
  IC50: > 20 µM
[4]; Homo sapiens, 3.3 μM, hTERT-BJ1, read-out: Relative SEAP activity (%)
  activity at 3.3 µM: 94 ± 17.4%
[4]; Homo sapiens, 33 μM, hTERT-BJ1, read-out: Relative SEAP activity (%)
  activity at 33 µM: 96 ± 8.5%
[4]; Homo sapiens, 339 μM, hTERT-BJ1, read-out: Relative SEAP activity (%)
  activity at 339 µM: 66 ± 11.8%
[5]
  viability at 48 h, 3.3 µM: 106 ± 7.4%
  viability at 48 h, 33 µM: 104 ± 3.7%
  viability at 48 h, 339 µM: 103 ± 6.4%
[6]
  viability at 48 h, 3.3 µM: 100 ± 4.8%
  viability at 48 h, 33 µM: 97 ± 1%
[6]; hTERT-BJ1 cells
  viability at 48 h, 339 µM: 99 ± 3.2%
[7]
  IC50: > 20 µM
other
  melting point: 193 to 195 °C

## CC(C)Nc1cccc2c1C(=O)c1cccc(NC(C)C)c1C2=O [IVc, 1,5-Bis(isopropylamino)anthraquinone]
[1]; [9]
  activity at 3.1 µM: 94 ± 4.1%
  activity at 31 µM: 93 ± 2%
  activity at 310 µM: 66 ± 4.7%
[2]
  IC50: > 20 µM
[3]
  IC50: 7.64 ± 2.38 µM
[4]; [10]
  activity at 3.1 µM: 32 ± 18.3%
  activity at 31 µM: 23 ± 20.5%
  activity at 310 µM: -2%
[5]
  viability at 48 h, 3.1 µM: 114 ± 7.6%
  viability at 48 h, 31 µM: 111 ± 4.7%
  viability at 48 h, 310 µM: 50 ± 7.5%
[6]; hTERT-BJ1 cells
  viability at 48 h, 3.1 µM: 101 ± 4.5%
  viability at 48 h, 31 µM: 93 ± 6.5%
  viability at 48 h, 310 µM: 98 ± 12.9%
[7]
  IC50: 19 µM
other
  melting point: 170 to 172 °C

## CCCNc1cccc2c1C(=O)c1cccc(NCCC)c1C2=O [IVf, 1,5-Bis(propylamino)anthraquinone]
[1]; [9]
  activity at 3.1 µM: 101 ± 15.3%
  activity at 31 µM: 100 ± 5.6%
  activity at 310 µM: 89 ± 8.3%
[2]
  IC50: 16 ± 0.68 µM
[3]
  IC50: 1.74 ± 0.14 µM
[4]; [10]
  activity at 3.1 µM: 18 ± 16.7%
  activity at 31 µM: 19 ± 24.6%
  activity at 310 µM: -7%
[5]
  viability at 48 h, 3.1 µM: 99 ± 7.6%
  viability at 48 h, 31 µM: 98 ± 5.8%
  viability at 48 h, 310 µM: 46 ± 9.5%
[6]; hTERT-BJ1 cells
  viability at 48 h, 3.1 µM: 97 ± 5.6%
  viability at 48 h, 31 µM: 93 ± 8.9%
  viability at 48 h, 310 µM: 42 ± 8.1%
[7]
  IC50: 1.94 µM
other
  melting point: 153 to 154 °C

## O=C1c2cccc(NCCc3ccccc3)c2C(=O)c2cccc(NCCc3ccccc3)c21 [IVs, 1,5-Bis(phenylethylamino)-anthraquinone]
[1]; Homo sapiens, NCI-H1299, 2.2 μM, hTERT-H1299, read-out: Relative SEAP activity (%)
  activity at 2.2 µM: 105 ± 3%
[1]; Homo sapiens, NCI-H1299, 22 μM, hTERT-H1299, read-out: Relative SEAP activity (%)
  activity at 22 µM: 103 ± 9.5%
[1]; Homo sapiens, NCI-H1299, 223 μM, hTERT-H1299, read-out: Relative SEAP activity (%)
  activity at 223 µM: 96 ± 2.9%
[2]
  IC50: > 20 µM
[3]
  IC50: > 20 µM
[4]; Homo sapiens, 2.2 μM, hTERT-BJ1, read-out: Relative SEAP activity (%)
  activity at 2.2 µM: 115 ± 12.9%
[4]; Homo sapiens, 22 μM, hTERT-BJ1, read-out: Relative SEAP activity (%)
  activity at 22 µM: 103 ± 12.3%
[4]; Homo sapiens, 223 μM, hTERT-BJ1, read-out: Relative SEAP activity (%)
  activity at 223 µM: 133 ± 23.8%
[5]
  viability at 48 h, 2.2 µM: 94 ± 5.2%
  viability at 48 h, 22 µM: 97 ± 3.2%
  viability at 48 h, 223 µM: 77 ± 4.2%
[6]
  viability at 48 h, 2.2 µM: 97 ± 4%
  viability at 48 h, 22 µM: 92 ± 1%
  viability at 48 h, 223 µM: 81 ± 4.7%
[7]
  IC50: > 20 µM
other
  melting point: 205 to 207 °C

## O=C(CCl)Nc1ccc(NC(=O)CCl)c2c1C(=O)c1ccccc1C2=O [VI1, 1,4-Bis(chloroacetamido)-9,10-anthracenedione]
[1]; 2.5 μM, PhTERT-SEAP(hTERT-H1299)
  SEAP/vibility: 0.98
[1]; 25 μM, PhTERT-SEAP(hTERT-H1299)
  SEAP/vibility: 1.14
[1]; 255 μM, PhTERT-SEAP(hTERT-H1299)
  SEAP/vibility: 4.66
[1]; Homo sapiens, NCI-H1299, 2.5 μM, PhTERT-SEAP(hTERT-H1299), read-out: Relative SEAP activity (%)
  activity at 2.5 µM: 102 ± 5.3%
[1]; Homo sapiens, NCI-H1299, 25 μM, PhTERT-SEAP(hTERT-H1299), read-out: Relative SEAP activity (%)
  activity at 25 µM: 110 ± 8.8%
[1]; Homo sapiens, NCI-H1299, 255 μM, PhTERT-SEAP(hTERT-H1299), read-out: Relative SEAP activity (%)
  activity at 255 µM: 97 ± 7.1%
[2]
  IC50: > 20 µM
[3]
  IC50: > 20 µM
[4]; 2.5 μM, PhTERT-SEAP (hTERT-BJ1)
  SEAP/vibility: 1.23
[4]; 25 μM, PhTERT-SEAP (hTERT-BJ1)
  SEAP/vibility: 1.53
[4]; 255 μM, PhTERT-SEAP (hTERT-BJ1)
  SEAP/vibility: 2.76
[4]; Homo sapiens, 2.5 μM, PhTERT-SEAP (hTERT-BJ1), read-out: Relative SEAP activity (%)
  activity at 2.5 µM: 123 ± 16.8%
[4]; Homo sapiens, 25 μM, PhTERT-SEAP (hTERT-BJ1), read-out: Relative SEAP activity (%)
  activity at 25 µM: 129 ± 17.7%
[4]; Homo sapiens, 255 μM, PhTERT-SEAP (hTERT-BJ1), read-out: Relative SEAP activity (%)
  activity at 255 µM: 121 ± 10.9%
[5]
  viability at 48 h, 2.5 µM: 104 ± 5.5%
  viability at 48 h, 25 µM: 96 ± 3.8%
  viability at 48 h, 255 µM: 21 ± 1.5%
[6]; [11]
  viability at 48 h, 2.5 µM: 101 ± 2.7%
  viability at 48 h, 25 µM: 84 ± 6.3%
[6]; [8]
  viability at 48 h, 255 µM: 44 ± 4.7%
[7]
  IC50: > 20 µM
other
  melting point: 285 to 287 °C

## O=C(CCCl)Nc1ccc(NC(=O)CCCl)c2c1C(=O)c1ccccc1C2=O [VI7, 1,4-Bis(3-chloropropionamido)-9,10-anthracenedione]
[1]; 2.3 μM, PhTERT-SEAP(hTERT-H1299)
  SEAP/vibility: 0.88
[1]; 23 μM, PhTERT-SEAP(hTERT-H1299)
  SEAP/vibility: 1.28
[1]; 238 μM, PhTERT-SEAP(hTERT-H1299)
  SEAP/vibility: 2.30
[1]; Homo sapiens, NCI-H1299, 2.3 μM, PhTERT-SEAP(hTERT-H1299), read-out: Relative SEAP activity (%)
  activity at 2.3 µM: 87 ± 2.3%
[1]; Homo sapiens, NCI-H1299, 23 μM, PhTERT-SEAP(hTERT-H1299), read-out: Relative SEAP activity (%)
  activity at 23 µM: 87 ± 3.1%
[1]; Homo sapiens, NCI-H1299, 238 μM, PhTERT-SEAP(hTERT-H1299), read-out: Relative SEAP activity (%)
  activity at 238 µM: 68 ± 5.3%
[2]
  IC50: > 20 µM
[3]
  IC50: > 20 µM
[4]; 2.3 μM, PhTERT-SEAP (hTERT-BJ1)
  SEAP/vibility: 0.36
[4]; 23 μM, PhTERT-SEAP (hTERT-BJ1)
  SEAP/vibility: 0.48
[4]; 238 μM, PhTERT-SEAP (hTERT-BJ1)
  SEAP/vibility: 0.23
[4]; Homo sapiens, 2.3 μM, PhTERT-SEAP (hTERT-BJ1), read-out: Relative SEAP activity (%)
  activity at 2.3 µM: 36 ± 12.1%
[4]; Homo sapiens, 23 μM, PhTERT-SEAP (hTERT-BJ1), read-out: Relative SEAP activity (%)
  activity at 23 µM: 40 ± 10.8%
[4]; Homo sapiens, 238 μM, PhTERT-SEAP (hTERT-BJ1), read-out: Relative SEAP activity (%)
  activity at 238 µM: 14 ± 11.8%
[5]
  viability at 48 h, 2.3 µM: 99 ± 6%
  viability at 48 h, 23 µM: 68 ± 2.4%
  viability at 48 h, 238 µM: 30 ± 3.8%
[6]; [8]
  viability at 48 h, 2.3 µM: 102 ± 4.1%
  viability at 48 h, 23 µM: 82 ± 8.2%
  viability at 48 h, 238 µM: 60 ± 2.5%
[7]
  IC50: > 20 µM
other
  melting point: 230 to 231 °C
